Results from patent publication US9428460B2, “N-[4-(quinolin-4-yloxy)cyclohexyl(methyl)](hetero)arylcarboxamides as androgen receptor antagonists, production and use thereof as medicinal products” (BAYER PHARMA AKTIENGESELLSCHAFT, priority 2012, dated 2016).

Assays:
Assay type in all cases: cell-based
LNCaP cells = assay: Proliferation assay with LNCaP cells; conditions: Homo sapiens, 168 h, in the presence of 1×10^−10 M R1881, seven days, AlamarBlue, read-out: IC50 LNCaP cell proliferation
Method: LNCaP cells (Horoszewicz et al., in “Models for Prostate Cancer” (ed. G. P. Murphy), Alan R. Liss, New York 1981, p. 115-132; Horoszewicz et al., Cancer Res. 43: 1809-1818, 1983) were plated out at a density of 2000 cells per well of a 96-well cell culture plate in RMPI 1640 medium (F1275, Biochrom AG), which contained activated charcoal-treated calf serum (FCS Serum Gold, PAA Laboratories) at a concentration of 5% (v/v). Three days later the cells were treated with the test substances in concentrations from 1×10^−8 to 1×10^−10 M in the presence of 1×10^−10 M R1881. Cell proliferation was determined seven days later after incubation for 2 hours with AlamarBlue (DAL1100, Invitrogen) (Nakayama et al., J Immunol Methods, 204(2): 205-8, 1997). The fluorescence values obtained were normalized, wherein 100% corresponded to the effect of the unstimulated control (without R1881), and 0% corresponded to the effect of the stimulated control (R1881 plus DMSO instead of test substance). The IC50 value was determined by regression analysis based on a four-parameter equation (minimum, maximum, IC50, Hill coefficient; Y=Max+(Min−Max)/(1+(X/IC50)^Hill)).

[1] = molecular target: androgen receptor mutant W741C (Homo sapiens (Human), UniProt P10275, W742C); assay: Transactivation assay for the androgen receptor mutant W741C (transfected PC-3 cells); conditions: in the presence of 1×10^−10 M R1881, 24 hours
Method: PC-3 cells (Kaighn et al., Invest. Urol. 17: 16-23, 1979) were plated out at a density of 10000 cells per well of a 96-well cell culture plate in RMPI 1640 medium (F1235, Biochrom AG, Berlin, Germany), which contained activated charcoal-treated calf serum (FCS Serum Gold, PAA Laboratories) at a concentration of 5% (v/v). On the next day the cells were transiently transfected with the pSG5-vector (#216201 Stratagene), which contained the sequence of the androgen receptor mutant W741C (Haapala et al., Lab Invest. 81(12): 1647-51, 2001), and with a reporter plasmid based on pGL4.14 (#E6691, Promega) with the luciferase-gene (from Photinus pyralis) under the control of the MMTV promoter (Cato et al., EMBO J. 6: 363-8, 1987). The cells were treated with the test substances in concentrations from 1×10^−8 to 1×10^−10 M in the presence of 1×10^−10 M R1881 and were incubated overnight at 37° C. and 5% CO2. After 24 hours, 100 μl of Steady Glo Lysis and Detection reagent (E2550, Promega) was added per well and the luminescence was read in a Victor3 Luminometer (PerkinElmer) for 1 second per well. The luminescence values obtained were normalized, wherein 100% corresponded to the effect of the unstimulated control (without R1881), and 0% corresponded to the effect of the stimulated control (R1881 plus DMSO instead of test substance). The IC50 value was determined by regression analysis based on a four-parameter equation (minimum, maximum, IC50, Hill coefficient; Y=Max+(Min−Max)/(1+(X/IC50)^Hill)).

[2] = molecular target: androgen receptor mutant E709Y (Homo sapiens (Human), UniProt P10275, E710Y); assay: Transactivation assay for the androgen receptor mutant E709Y (transfected PC-3 cells); conditions: in the presence of 1×10^−10 M R1881, 24 hours
Method: PC-3 cells (Kaighn et al., Invest. Urol. 17: 16-23, 1979) were plated out at a density of 10000 cells per well of a 96-well cell culture plate in RMPI 1640 medium (F1235, Biochrom AG Berlin, Germany) that contained activated charcoal-treated calf serum (FCS Serum Gold, PAA Laboratories) at a concentration of 5% (v/v). On the next day the cells were transiently transfected with the pSG5-vector (#216201 Stratagene), which contained the sequence of the androgen receptor mutant E709Y (Georget et al., Mol. Endocrinol. 20(4): 724-734, 2006), and with the MMTV-luciferase plasmid (see above, transactivation assay for the androgen receptor mutant W741C). The cells were treated with the test substances in concentrations from 1×10^−8 to 1×10^−10 M in the presence of 1×10^−10 M R1881 and were incubated overnight at 37° C. and 5% CO2. After 24 hours, 100 μl of Steady Glo Lysis and Detection reagent (E2550, Promega) was added per well and the luminescence was read in a Victor3 Luminometer (PerkinElmer) for 1 second per well. The luminescence values obtained were normalized, wherein 100% corresponded to the effect of the unstimulated control (without R1881), and 0% corresponded to the effect of the stimulated control (R1881 plus DMSO instead of test substance). The IC50 value was determined by regression analysis based on a four-parameter equation (minimum, maximum, IC50, Hill coefficient; Y=Max+(Min−Max)/(1+(X/IC50)^Hill)).

Chain of androgen receptor mutant W741C (P10275 whole entry W742C): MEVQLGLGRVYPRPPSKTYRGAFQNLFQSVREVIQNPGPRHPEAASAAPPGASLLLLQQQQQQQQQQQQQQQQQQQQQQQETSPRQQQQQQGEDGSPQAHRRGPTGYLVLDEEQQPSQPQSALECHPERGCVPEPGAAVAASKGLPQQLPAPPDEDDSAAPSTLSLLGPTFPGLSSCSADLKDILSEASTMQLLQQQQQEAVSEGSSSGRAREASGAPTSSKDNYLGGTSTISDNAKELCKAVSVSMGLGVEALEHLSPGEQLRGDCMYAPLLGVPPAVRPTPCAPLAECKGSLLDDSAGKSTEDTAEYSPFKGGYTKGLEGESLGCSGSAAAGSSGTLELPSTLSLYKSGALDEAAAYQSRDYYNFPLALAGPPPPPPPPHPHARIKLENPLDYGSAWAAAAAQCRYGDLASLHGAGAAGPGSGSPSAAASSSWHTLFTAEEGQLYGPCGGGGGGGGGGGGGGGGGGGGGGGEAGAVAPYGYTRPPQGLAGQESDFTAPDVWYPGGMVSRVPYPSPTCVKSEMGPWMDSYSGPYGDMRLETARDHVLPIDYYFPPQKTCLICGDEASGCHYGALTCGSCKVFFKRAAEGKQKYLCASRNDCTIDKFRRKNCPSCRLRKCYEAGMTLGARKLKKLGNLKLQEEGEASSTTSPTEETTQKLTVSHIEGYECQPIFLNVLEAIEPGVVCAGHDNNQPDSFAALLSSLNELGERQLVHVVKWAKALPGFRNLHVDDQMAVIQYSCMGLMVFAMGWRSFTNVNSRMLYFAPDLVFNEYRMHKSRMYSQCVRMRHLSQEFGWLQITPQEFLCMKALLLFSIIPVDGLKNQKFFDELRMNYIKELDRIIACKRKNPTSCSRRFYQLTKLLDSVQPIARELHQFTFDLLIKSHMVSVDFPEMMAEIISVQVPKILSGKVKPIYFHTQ
Chain of androgen receptor mutant E709Y (P10275 whole entry E710Y): as the sequence (P10275 whole entry W742C) above, with E710Y, C742W counted along it

N#Cc1cccc2c(O[C@H]3CC[C@H](NC(=O)c4cccc(F)c4)CC3)ccnc12 [Example 23, N-{trans-4-[(8-cyanoquinolin-4-yl)oxy]cyclohexyl}-3-fluorobenzamide]
IC50 (LNCaP cells): 28 nM | IC50 [1]: 30 nM | IC50 [2]: 9 nM
